Experiment [1] has as its system pupil diameter of patients suffering from presbyopia. The experiment is described as follows: Preliminary evaluation: pupil diameter after pilocarpine alone or with brimonidine. Format: in vivo, human. The method, then:
(§1) The effect of pilocarpine alone or in combination with brimonidine on near visual acuity (VA) for patients suffering from presbyopia was evaluated. Initially, 10 patients were selected for preliminary evaluation. Each patient was administered with one drop of a formulation containing 0.25%, 0.5%, or 1.0% pilocarpine with or without one drop of a formulation containing 0.2% brimonidine. Thus, the following six dosages were initially tested: • 1. 0.25% pilocarpine, • 2. 0.5% pilocarpine, • 3. 1.0% pilocarpine, • 4. 0.25% pilocarpine and 0.2% brimonidine, • 5. 0.5% pilocarpine and 0.2% brimonidine, and • 6. 1.0% pilocarpine and 0.2% brimonidine.

The subject of experiment [2] is near visual acuity (VA) for patients suffering from presbyopia. Nature of the experiment: Preliminary evaluation: near visual acuity after pilocarpine alone or with brimonidine. The class given is in vivo, human. The procedure:
as §1

Several values for one entry are separate records, joined by “and”; a condition that tells them apart may be missing. Equal entries are not always repeated.

`CC[C@@H]1C(=O)OC[C@@H]1Cc1cncn1C` [Pilo Alone, pilocarpine]: the Pupil is 3 and 3.5 and 2.5 and 3.3 in experiment [1] (Pilo alone 0.25%, 1 hr); 4 and 3.5 and 3 in experiment [1] (Pilo alone 0.25%, 2 hrs); 4 in experiment [1] (Pilo alone 0.25%, 4 hrs); 2.5 and 3.8 and 3 in experiment [1] (Pilo alone 0.5%, 1 hr); 3 and 4 and 2.5 and 3.3 in experiment [1] (Pilo alone 0.5%, 2 hrs); 3.3 and 4 and 3 and 4.2 in experiment [1] (Pilo alone 0.5%, 4 hrs). Besides, the Pupil in experiment [1] (Pilo alone 1%, 1 hr) was 2.5 and 1.5 and 3; in experiment [1] (Pilo alone 1%, 2 hrs) it was 3 and 1.5 and 2.5; in experiment [1] (Pilo alone 1%, 4 hrs) it was 4 and 2.5 and 3. Besides, the “duration of effect on visual acuity (wear out)” value in experiment [2] (1, 2, 4 hrs after administration) was “appears to wear out fairly quickly”. Moreover, the “nVA” value is 3 J and 5 J and 6 J in experiment [2] (Pilo alone 0.25%, 2 hrs); 3 J and 6 J and 5 J in experiment [2] (Pilo alone 0.5%, 1 hr); 5 J and 3 J in experiment [2] (Pilo alone 0.5%, 2 hrs); 5 J and 3 J in experiment [2] (Pilo alone 0.5%, 4 hrs).
Regarding `Brc1c(NC2=NCCN2)ccc2nccnc12` [brimonidine], in experiment [1] (brimonidine combined with pilocarpine), the “effect on the pupil (potentiation of pilocarpine)” value was “potentiates the effect of pilocarpine on the pupil”.
